Here are results for 8 molecules from PubChem BioAssay (NCI).

Test systems include IGROV1 ovarian; SR leukemia; HT29 colon; CAKI-1 renal; CCRF-CEM leukemia; KM12 colon; NCI/ADR-RES ovarian; NCI-H460 lung; SNB-75 CNS; HL-60(TB) leukemia.
Holding throughout (test): DTP human tumour cell line panel, 48 h

Values joined by “and” are separate entries in the source; they are usually repeats but may differ in a detail not shown here. Equal entries are not always repeated.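 How tested: cells in 96-well plates exposed to compound for 48 hours at five concentrations. Abbreviation: GI50, concentration required for 50% inhibition of growth. Definition used: TGI = concentration required for complete inhibition of growth.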

The GI50 is the concentration at which growth is held to half of that of the control. In general, TGI refers to the concentration giving total growth inhibition. Read a high TGI as less potent growth arrest. For `O=C(Nc1ccc(-n2cc(-c3ccncc3)c(-c3ccc(Cl)c(O)c3)n2)cc1)c1ccc(Cl)c(Cl)c1`, the GI50 with IGROV1 ovarian is over 100 µM; in the test with SR leukemia it was 3.6 µM; in the test with HT29 colon, 2.6 µM; with CAKI-1 renal, 3.67 µM; with CCRF-CEM leukemia it was 4.52 µM; in the test with KM12 colon, 3.05 µM. The GI50 was 4.91 µM in the test on NCI/ADR-RES ovarian, 3.09 µM in the test with NCI-H460 lung, 3.92 µM in the test with SNB-75 CNS and 2.97 µM in the test with HL-60(TB) leukemia. For the same molecule, the concentration for total growth inhibition (TGI) was over 100 µM with IGROV1 ovarian; over 100 µM in the test on SR leukemia; over 100 µM in the test on HT29 colon; 21.3 µM in the test with CAKI-1 renal; over 100 µM in the test on CCRF-CEM leukemia; over 100 µM with KM12 colon. For the same molecule, the TGI in the test on NCI/ADR-RES ovarian was over 100 µM; in the test on NCI-H460 lung it was over 100 µM; with SNB-75 CNS, over 100 µM; with HL-60(TB) leukemia, 6.35 µM.

`Cc1nc(Nc2ccc(Cl)c(Cl)c2)sc1C(/C=C/c1ccc2c(c1)OCO2)=N/Nc1ccc([N+](=O)[O-])cc1[N+](=O)[O-]`: the TGI was over 100 µM in the test with IGROV1 ovarian; over 100 µM in the test on SR leukemia; over 100 µM with HT29 colon; over 46.4 µM in the test with CAKI-1 renal; over 100 µM in the test with CCRF-CEM leukemia; over 100 µM in the test with KM12 colon. For the same molecule, the concentration for total growth inhibition (TGI) in the test with NCI/ADR-RES ovarian is over 100 µM; with NCI-H460 lung it was over 100 µM; in the test on SNB-75 CNS it was 32.8 µM; with HL-60(TB) leukemia, over 100 µM.

For `CC(=O)OCCc1cc2ccccc2oc1=O`, the TGI with IGROV1 ovarian, in the test with SR leukemia, in the test with HT29 colon, with CAKI-1 renal, in the test on CCRF-CEM leukemia and with KM12 colon was over 100 µM in each case. Moreover, the TGI in the test on NCI/ADR-RES ovarian, with NCI-H460 lung, in the test on SNB-75 CNS and with HL-60(TB) leukemia was over 100 µM in each case.

Turning to `CC(C)(C)c1cnc(CSc2cnc(NC(=O)C3CCNCC3)s2)o1`, the GI50 is 0.204 µM in the test on IGROV1 ovarian; 0.0346 µM and 0.0265 µM with SR leukemia; 0.181 µM and 0.182 µM in the test on HT29 colon; 3.89 µM and > 3 µM with CAKI-1 renal; 0.251 µM and 0.168 µM in the test with CCRF-CEM leukemia; 0.14 µM and 0.166 µM with KM12 colon. The GI50 in the test on NCI/ADR-RES ovarian is 45.5 µM; in the test with NCI-H460 lung, 0.306 µM and 0.319 µM; in the test with SNB-75 CNS, 0.15 µM and 0.124 µM; in the test with HL-60(TB) leukemia, 0.0937 µM and 0.0791 µM. Moreover, the TGI in the test on IGROV1 ovarian is 4.28 µM and > 10 µM; in the test on SR leukemia, 1.6 µM; in the test on CAKI-1 renal it was 32.7 µM and > 10 µM; with CCRF-CEM leukemia, over 100 µM; in the test with KM12 colon, 5.35 µM and > 10 µM; with NCI/ADR-RES ovarian, over 100 µM. The TGI with NCI-H460 lung was 25.4 µM and > 10 µM; in the test with SNB-75 CNS, 0.4 µM and 0.324 µM; in the test on HL-60(TB) leukemia it was 0.976 µM and 0.461 µM.

As for `CNc1ccc(CSc2ccc(C)cc2)cc1`, the GI50 with IGROV1 ovarian was 13 µM; in the test on SR leukemia, 6.15 µM; in the test with HT29 colon, 21.7 µM; in the test on CAKI-1 renal, 7.94 µM; in the test with CCRF-CEM leukemia, 0.676 µM; with KM12 colon, 8.58 µM. Also, the GI50 with NCI/ADR-RES ovarian is 21.4 µM; in the test on NCI-H460 lung, 25.3 µM; with SNB-75 CNS, 11.9 µM; with HL-60(TB) leukemia, 1.32 µM. The TGI with IGROV1 ovarian is over 100 µM; in the test on SR leukemia it was 90.1 µM; with HT29 colon it was 77.8 µM; with CAKI-1 renal, over 100 µM; in the test with CCRF-CEM leukemia, 12.2 µM; with KM12 colon it was over 100 µM. The TGI in the test with NCI/ADR-RES ovarian is over 100 µM; in the test on NCI-H460 lung, over 100 µM; in the test with SNB-75 CNS it was over 100 µM; with HL-60(TB) leukemia it was 4.28 µM.

Consider `Cc1ncc([N+](=O)[O-])n1CCOc1ccc(C(=O)/C=C/c2ccc(C(F)(F)F)cc2)cc1`, for which the GI50 in the test with IGROV1 ovarian was 2 µM; in the test on SR leukemia it was 1.97 µM; with HT29 colon it was 1.99 µM; in the test on CAKI-1 renal it was 2 µM; in the test with CCRF-CEM leukemia, 2.02 µM; in the test with KM12 colon it was 2.01 µM. Besides, the GI50 is 2.76 µM in the test with NCI/ADR-RES ovarian, 4.09 µM in the test with NCI-H460 lung, 2.57 µM with SNB-75 CNS and 2.91 µM in the test with HL-60(TB) leukemia. Further, the TGI in the test with IGROV1 ovarian worked out at 4.13 µM; in the test with SR leukemia it was 5.5 µM; in the test with HT29 colon, 4.23 µM; in the test with CAKI-1 renal it was 5.25 µM; in the test on CCRF-CEM leukemia, 6 µM; in the test with KM12 colon, 4.22 µM. The total growth inhibition concentration (TGI) turned out to be 9.29 µM in the test with NCI/ADR-RES ovarian, 15 µM in the test with NCI-H460 lung, 12.8 µM in the test with SNB-75 CNS and 11.4 µM with HL-60(TB) leukemia.

In the case of `O=C(NCCNC1=CC(=O)c2nc3ccccc3c3ccnc1c23)c1cnccn1`, the GI50 is 45.2 µM in the test with IGROV1 ovarian; 9.26 µM in the test on SR leukemia; 33 µM with HT29 colon; 15.8 µM with CAKI-1 renal; 1.94 µM in the test with CCRF-CEM leukemia; 11.2 µM with KM12 colon. The GI50 in the test on NCI/ADR-RES ovarian was 96.6 µM; in the test with NCI-H460 lung, 18.4 µM; in the test with SNB-75 CNS, over 100 µM; in the test with HL-60(TB) leukemia, 42.8 µM. The concentration for total growth inhibition (TGI) with IGROV1 ovarian is over 100 µM; with SR leukemia, over 100 µM; in the test with HT29 colon, over 100 µM; in the test on CAKI-1 renal, 50.9 µM; in the test on CCRF-CEM leukemia, over 100 µM; in the test with KM12 colon, 63.4 µM. For the same molecule, the TGI in the test with NCI/ADR-RES ovarian, in the test with NCI-H460 lung, with SNB-75 CNS and in the test on HL-60(TB) leukemia was over 100 µM each time.

Regarding `Cn1cc(C2=C(c3cccc([N+](=O)[O-])c3)C(=O)NC2=O)c2ccccc21`, the GI50 in the test on IGROV1 ovarian was 9.98 µM; in the test on SR leukemia, 7 µM; in the test with HT29 colon, 7.29 µM; in the test with CAKI-1 renal it was 5.5 µM; in the test on CCRF-CEM leukemia it was 7.19 µM; in the test with KM12 colon it was 5.05 µM. Further, the GI50 in the test on NCI/ADR-RES ovarian was 5.66 µM; in the test with NCI-H460 lung, 8.52 µM; with SNB-75 CNS it was 0.14 µM; in the test on HL-60(TB) leukemia, 7.14 µM. Moreover, the TGI was 24.2 µM in the test with IGROV1 ovarian; over 25 µM in the test with SR leukemia; over 25 µM in the test on HT29 colon; over 25 µM in the test on CAKI-1 renal; over 25 µM in the test on CCRF-CEM leukemia; 12.9 µM in the test on KM12 colon. Also, the total growth inhibition concentration (TGI) in the test on NCI/ADR-RES ovarian was over 23.1 µM; in the test on NCI-H460 lung it was over 25 µM; in the test with SNB-75 CNS, over 25 µM; in the test on HL-60(TB) leukemia, 19.1 µM.
